Assay results as given in US20260216138A1, “IDENTIFICATION OF OTUD7B INHIBITOR 7BI AND ITS APPLICATION IN REDUCING GROWTH OF NSCLC AND LEUKEMIA CELLS” (The University of North Carolina at Chapel Hill, priority 2023, published 2026).
Entries after “also recorded” stand apart in the source; their conditions may differ.

Tests used:
HL60 cells = assay: Leukemia cell proliferation, HL60; format: cell-based; conditions: 72 hrs
Experimental: (§1) 2,000 cells from indicated NSLC cell lines were seeded into each well of 96-well plates. Cell viability was measured 3 days post-treatment using MTT assays following manufacturer's instruction. For cell viability assays with inhibitor treatment, 2,000 cells from indicated NSLC and HEK293 cell lines were seeded in 96-well plate. Inhibitor was added the next day at indicated concentration and cell viability was measured after 3-day treatment. For cell proliferation assays in THP1, K562 and HL60 cell lines, 1×10^6 cells from each indicated cell line were seeded in 12.5 cm2 cell culture flask and cells were counted by hemocytometer under microscope at indicated time to monitor cell proliferation. To test inhibitor effects on THP1, K562 and HL60 cell growth, 2×10^5 cells were seeded in 12.5 cm2 cell culture flask. Inhibitor was added the next day at indicated concentrations and cell number was counted after 3 days treatment. Three independent experiments were performed to generate error bars.

[1] = system: K63-linked ubiquitination of GβL; assay: Endogenous K63-linked GβL ubiquitination (GβL-IP); format: cell-based; conditions: 16 hrs
Experimental: (§2) Cells were harvested and lysed in EBC buffer (50 mM Tris pH 7.5, 120 mM NaCl, 0.5% NP-40) supplemented with protease inhibitor cocktail (EDTA-free, mini-tablet) (Bimake) and phosphatase inhibitor cocktail (Bimake) by rotating in the cold room for 10 min followed by high-speed centrifugation at 4° C. The protein concentrations in supernatants of whole cell lysates were measured by NanoDrop OneC using the Bio-Rad Bradford protein assay reagent. Equal amounts of whole cell lysates were resolved on SDS-PAGE and immunoblotted with indicated antibodies. For immunoprecipitation analysis, 1 mg of total cell lysate was incubated with the indicated beads for 3-4 hr at 4° C. The recovered immuno-complexes were washed thoroughly three times with NETN buffer (20 mM Tris, pH 8.0, 100 mM NaCl, 1 mM EDTA and 0.5% NP-40) before being resuspended in SDS sample buffer and resolved on SDS-PAGE and immunoblotted with indicated antibodies.

OTUD7A = target: T1, OTUD7A (Homo sapiens, UniProt Q8TE49); assay: Ubiquitin-AMC assay, OTUD7A; format: biochemical; conditions: 50 μM 7Bi, 10 μM OTUD7A, 2 uM ubiquitin-AMC
T1 construct: OTUD7A (residues 1-462); GST (N, cleaved yes); made in house; host or cells: E. coli BL21-Codon Plus (DE3)-RIL
T1 sequence (Q8TE49 1-462): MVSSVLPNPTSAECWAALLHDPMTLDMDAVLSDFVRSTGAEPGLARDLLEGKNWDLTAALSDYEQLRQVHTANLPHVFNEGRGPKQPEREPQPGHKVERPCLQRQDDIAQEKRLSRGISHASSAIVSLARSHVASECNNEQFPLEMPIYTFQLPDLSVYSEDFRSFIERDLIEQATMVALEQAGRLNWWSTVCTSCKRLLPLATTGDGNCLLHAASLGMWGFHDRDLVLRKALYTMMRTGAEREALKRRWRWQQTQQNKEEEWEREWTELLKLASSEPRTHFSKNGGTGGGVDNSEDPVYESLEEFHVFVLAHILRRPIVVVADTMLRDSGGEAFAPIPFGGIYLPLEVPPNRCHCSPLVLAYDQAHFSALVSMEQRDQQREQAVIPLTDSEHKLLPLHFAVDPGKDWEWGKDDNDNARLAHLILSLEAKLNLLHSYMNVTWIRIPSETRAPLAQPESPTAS
Experimental: 50 μM 7Bi were incubated with 300 nM OTUD7B (residues 56-446), 10 μM OTUD7A (residues 1-462), 200 nM USP21 (residues 196-565), or 500 nM USP9X (residues 1551-1970) in reaction buffer (20 mM HEPES pH=8.0, 200 mM NaCl, 0.25 mg/mL BSA and 0.005% Tween-20) for 5 min at room temperature. Then, 2 uM ubiquitin-AMC was added to start the reaction. The fluorescence emission data was collected at an excitation wavelength of 355 nm and emission wavelength of 460 nm every 3 min. Reactions were completed three times to generate the error bars.

[2] = system: OTUD7B-induced GβL deubiquitination; assay: In-cell GβL ubiquitination assay (Ni-NTA pulldown, HEK293 cells); format: cell-based; conditions: HEK293 cells transfected with DNA constructs, compound for 16 hrs; listed as #19
Experimental: FIGS. 2A-2L show results of validation for OTUD7B small molecule inhibitors in cells. (A-D) IB analyses of WCL from indicated NSCLC cells treated with […] of indicated compounds for 16 hrs. (E, F) IB analyses of WCL from either A549 (E) or HEK293 (F) cells treated with indicated doses of compound #19 for 16 hrs. (G) IB analyses of Ni-NTA pulldowns and WCL from HEK293 cells transfected with indicated DNA constructs. Where indicated, cells were treated with […] of indicated compounds for 16 hrs before cell collection. (H-L) Quantifications of cell viability by MTT assays in A549 cells treated with indicated doses of indicated compounds for 72 hrs. Error bars were calculated as mean+/−SD, n=3. *p<0.05 (one-way ANOVA test).

H520 cells = assay: Colony formation / growth of H520 cells; format: cell-based; conditions: treated once for 10 days
Experimental: (§3) 500 cells from OTUD7B depleted A549 cells were seeded into each well of 6-well plates and cultured in the 37° C. incubator with 5% CO2 for 10-15 days until formation of visible colonies. Triplicates were performed. To test the effect of a given inhibitor on colony formation ability, 800 cells from A549, H520 and H1299 cell lines were seeded into each well of 6-well plates, respectively. Each inhibitor was added at indicated concentration the next day. Colonies were counted after 10 days of treatment. The colony staining method was as described. […] Colony numbers were counted manually. […]
as §1, with “For cell viability assays with inhibitor treatment, 2,000 cells from indicated NSLC and HEK293 cell lines were seeded in 96-well plate.” left out, “To test inhibitor effects on THP1, K562 and HL60 cell growth, 2×10^5 cells were seeded in 12.5 cm2 cell culture flask.” left out, “Three independent experiments were performed to generate error bars.” left out

H1299 cells = assay: Colony formation / growth of H1299 cells; format: cell-based; conditions: treated once for 10 days
Experimental: as §3
as §1, with “For cell viability assays with inhibitor treatment, 2,000 cells from indicated NSLC and HEK293 cell lines were seeded in 96-well plate.” left out, “To test inhibitor effects on THP1, K562 and HL60 cell growth, 2×10^5 cells were seeded in 12.5 cm2 cell culture flask.” left out, “Three independent experiments were performed to generate error bars.” left out

HEK293 cells = assay: Cell viability by MTT assay in HEK293 cells; format: cell-based; conditions: 72 hrs
Experimental: as §1

OTUD7B = OTUD7B protein levels by immunoblot; format: cell-based; conditions: 16 hrs
Experimental: as §2

THP1 cells = assay: Leukemia cell proliferation, THP1; format: cell-based; conditions: 72 hrs
Experimental: as §1

- inhibition of hydrolysis of ubiquitin-AMC by OTUD7A (OTUD7A): but not its close family member OTUD7A
Structure (SMILES): Cc1cc(NC(=O)c2cnn(C)c2C(=O)Nc2cc(C)nn2C2CCCC2)n(C2CCCC2)n1 [7Bi]
- cell proliferation (HL60 cells): reduced proliferation
- K63-linked ubiquitination of GβL at endogenous levels ([1]; A549 cells): increased K63-linked ubiquitination of GβL at endogenous levels
- K63-linked GβL ubiquitination at endogenous levels ([1]; K562 cells): increased K63-linked GβL ubiquitination at endogenous levels
- blocking OTUD7B-induced GβL deubiquitination in cells [2]: partially blocked OTUD7B-induced GβL deubiquitination; also recorded: able to block OTUD7B-mediated GβL deubiquitination in cells
- cell growth (H520 cells): reduced growth
- cell growth (H1299 cells): reduced growth
- cell growth (MTT) (HEK293 cells): reduced growth
- OTUD7B protein levels (OTUD7B; A549 cells): did not significantly affect OTUD7B protein levels
- OTUD7B protein levels (OTUD7B; HEK293 cells): did not significantly affect OTUD7B protein levels
- cell proliferation (THP1 cells): reduced proliferation
